# Experimental data from ChEMBL document CHEMBL3885861, “Open TG-GATES”.
# Species on record: Rattus norvegicus
# Test: Open TG-GATES - Regimen: Single
# Assay type: toxicity, organism-based, Sprague-Dawley
# Design: regimen Single, gender Male, age 6 weeks
# Details: in vivo, po, 0 mg/kg, route gavage, dose level Control; for APTT / Bas / Eos / Fbg / Hb / Ht / Lym / MCH / MCHC / MCV / Mono / Neu / PT / Plat / RBC / Ret / WBC: tissue Blood; for KIDNEY_L / KIDNEY_R / KIDNEY_TOTAL: tissue Kidney; for LIVER: tissue Liver; for ALP / ALT / AST / CRE / DBIL / GLC / IP / K / LDH / Na / PL / RALB / TBIL / TC / TG / TP / gamma-GTP: tissue Plasma
structure (smiles),measurement,setting,value
CC(C)Cc1ccc(C(C)C(=O)O)cc1 (centres undefined) [IBUPROFEN],TERMINAL_BW,3 h,204.9 g
same,APTT,3 h,21.3 s
same,Bas,3 h,0%
same,Eos,3 h,1%
same,Fbg,3 h,277 mg/dL
same,Hb,3 h,13.2 g/dL
same,Ht,3 h,38.4%
same,Lym,3 h,72.8%
same,MCH,3 h,21.5 pg
same,MCHC,3 h,34.3%
same,MCV,3 h,62.7 fL
same,Mono,3 h,2%
same,Neu,3 h,23.6%
same,PT,3 h,15.8 s
same,Plat,3 h,113 x10_4/uL
same,RBC,3 h,612.8 x10_4/ul
same,Ret,3 h,7.9%
same,WBC,3 h,79.6 x10_2/uL
same,KIDNEY_L,3 h,0.9 g
same,KIDNEY_R,3 h,1 g
same,KIDNEY_TOTAL,3 h,1.9 g
same,LIVER,3 h,9.3 g
same,ALP,3 h,1578.8 IU/L
same,ALT,3 h,42.4 IU/L
same,AST,3 h,81.8 IU/L
same,CRE,3 h,0.2 mg/dL
same,DBIL,3 h,0 mg/dL
same,GLC,3 h,183 mg/dL
same,IP,3 h,8.2 mg/dL
same,K,3 h,4 meq/L
same,LDH,3 h,274 IU/L
same,Na,3 h,142 meq/L
same,PL,3 h,130.4 mg/dL
same,RALB,3 h,3 g/dL
same,TBIL,3 h,0.018 mg/dL
same,TC,3 h,72.6 mg/dL
same,TG,3 h,51 mg/dL
same,TP,3 h,5.4 g/dL
same,gamma-GTP,3 h,1.2 IU/L
same,TERMINAL_BW,6 h,200 g
same,Bas,6 h,0%
same,Eos,6 h,0.8%
same,Fbg,6 h,288.8 mg/dL
same,Hb,6 h,13.6 g/dL
same,Ht,6 h,40%
same,Lym,6 h,82.2%
same,MCH,6 h,21.7 pg
same,MCHC,6 h,34%
same,MCV,6 h,63.8 fL
same,Mono,6 h,1.8%
same,PT,6 h,15.9 s
same,Plat,6 h,118.6 x10_4/uL
same,RBC,6 h,627 x10_4/ul
same,Ret,6 h,7.8%
same,WBC,6 h,96.9 x10_2/uL
same,KIDNEY_L,6 h,0.9 g
same,KIDNEY_R,6 h,0.9 g
same,KIDNEY_TOTAL,6 h,1.9 g
same,LIVER,6 h,8.8 g
same,ALP,6 h,1383.4 IU/L
same,ALT,6 h,39.6 IU/L
same,AST,6 h,75.4 IU/L
same,CRE,6 h,0.2 mg/dL
same,DBIL,6 h,0 mg/dL
same,GLC,6 h,178 mg/dL
same,IP,6 h,8.9 mg/dL
same,K,6 h,4.2 meq/L
same,LDH,6 h,236.2 IU/L
same,Na,6 h,140.6 meq/L
same,PL,6 h,132.2 mg/dL
same,RALB,6 h,2.9 g/dL
same,TBIL,6 h,0.028 mg/dL
same,TC,6 h,73.2 mg/dL
same,TG,6 h,69.8 mg/dL
same,TP,6 h,5.4 g/dL
same,gamma-GTP,6 h,1.2 IU/L
same,TERMINAL_BW,9 h,198.1 g
same,APTT,9 h,23.4 s
same,Bas,9 h,0%
same,Eos,9 h,0.6%
same,Fbg,9 h,287 mg/dL
same,Hb,9 h,13 g/dL
same,Ht,9 h,38.7%
same,Lym,9 h,79.6%
same,MCH,9 h,21.6 pg
same,MCHC,9 h,33.8%
same,MCV,9 h,64 fL
same,Mono,9 h,1.8%
same,Neu,9 h,17%
same,PT,9 h,15.9 s
same,Plat,9 h,125.1 x10_4/uL
same,RBC,9 h,604.6 x10_4/ul
same,Ret,9 h,7.4%
same,WBC,9 h,76.6 x10_2/uL
same,KIDNEY_L,9 h,0.9 g
same,KIDNEY_R,9 h,0.9 g
same,KIDNEY_TOTAL,9 h,1.8 g
same,LIVER,9 h,8.2 g
same,ALP,9 h,1448.2 IU/L
same,ALT,9 h,36.6 IU/L
same,AST,9 h,73.2 IU/L
same,CRE,9 h,0.2 mg/dL
same,DBIL,9 h,0.006 mg/dL
same,GLC,9 h,178 mg/dL
same,IP,9 h,9.6 mg/dL
same,K,9 h,4.1 meq/L
same,Na,9 h,141.4 meq/L
same,PL,9 h,130.4 mg/dL
same,RALB,9 h,2.9 g/dL
same,TBIL,9 h,0.026 mg/dL
same,TC,9 h,72.8 mg/dL
same,TG,9 h,54.4 mg/dL
same,TP,9 h,5.5 g/dL
same,gamma-GTP,9 h,1.2 IU/L
same,TERMINAL_BW,24 h,213.6 g
same,APTT,24 h,20.3 s
same,Bas,24 h,0%
same,Eos,24 h,1.2%
same,Fbg,24 h,306 mg/dL
same,Hb,24 h,13.1 g/dL
same,Ht,24 h,38.6%
same,Lym,24 h,79.8%
same,MCH,24 h,21.4 pg
same,MCHC,24 h,33.8%
same,MCV,24 h,63.5 fL
same,Mono,24 h,3.2%
same,Neu,24 h,15.2%
same,PT,24 h,16.5 s
same,Plat,24 h,124.1 x10_4/uL
same,RBC,24 h,609.8 x10_4/ul
same,Ret,24 h,7.4%
same,WBC,24 h,117.7 x10_2/uL
same,KIDNEY_L,24 h,0.9 g
same,KIDNEY_R,24 h,0.9 g
same,KIDNEY_TOTAL,24 h,1.8 g
same,LIVER,24 h,10.1 g
same,ALP,24 h,1790.4 IU/L
same,ALT,24 h,47.2 IU/L
same,AST,24 h,77.2 IU/L
same,CRE,24 h,0.2 mg/dL
same,DBIL,24 h,0 mg/dL
same,GLC,24 h,198.8 mg/dL
same,IP,24 h,7.3 mg/dL
same,K,24 h,4.5 meq/L
same,LDH,24 h,235.4 IU/L
same,Na,24 h,141.6 meq/L
same,PL,24 h,145.8 mg/dL
same,RALB,24 h,3.1 g/dL
same,TBIL,24 h,0 mg/dL
